Measurements: US20040152903A1, “6-chloro-3-pyridylmethylpropylamine derivatives, preparation process thereof and bactericides” (priority 2004, published 2004)

Columns and labels:
Pyrenophora graminea = test: Antifungal activity test (PDA plate, hypha extension inhibition); type: cell-based; details: 12.5 ppm in PDA culture medium
Description: (§1) (Antifungal Activity Test against Various Pathogenic Fungi) For each of the compounds I-1 to 27 of the present invention and the comparative compounds (a) to (d), (m-1) and (m-3), 20 mg was weighed and dissolved in 2 ml of dimethylsulfoxide, and a double dilution row in 10 steps was prepared by further using dimethylsulfoxide. A 0.6 ml portion of these solutions was each added to 60 ml of a PDA culture medium (potato-dextrose-agar culture medium) at about 60° C., they were well mixed in a 100 ml Erlenmeyer flask, the solution was poured into a schale and was solidified, the plate culture media containing the compounds according to the present invention with final concentrations of 100, 50.0, 25.0, 12.5, 6.3, 3.2, 1.6, 0.8, 0.4 and 0.2 mg/l were prepared. On the other hand, the specimen bacteria cultured on the plate culture media beforehand was punched by a 4 mm diameter cork borer, and was inoculated on the plate culture media containing the aforementioned chemicals. After the inoculation, the bacteria were cultured at the optimum growth temperature of each bacterium for 1 to 7 days (for this optimum growth temperature, LIST OF CULTURES 1996 Microorganisms 10th edition published by Fermentation Research Institute (Foundation) can be referred to.), and the growth of the bacteria was measured by the diameter of a colony. […]

Leptosphaeria nodorum = test: as above; type: cell-based; details: 0.8 ppm in PDA culture medium
Description: (Antifungal Activity Test against Various Pathogenic Fungi) For each of the compounds I-1 to 27 of the present invention and the comparative compounds (a) to (d), (m-1) and (m-3), 20 mg was weighed and dissolved in 2 ml of dimethylsulfoxide, and a double dilution row in 10 steps was prepared by further using dimethylsulfoxide. A 0.6 ml portion of these solutions was each added to 60 ml of a PDA culture medium (potato-dextrose-agar culture medium) at about 60° C., they were well mixed in a 100 ml Erlenmeyer flask, the solution was poured into a schale and was solidified, the plate culture media containing the compounds according to the present invention with final concentrations of 100, 50.0, 25.0, 12.5, 6.3, 3.2, 1.6, 0.8, 0.4 and 0.2 mg/l were prepared. On the other hand, the specimen bacteria cultured on the plate culture media beforehand was punched by a 4 mm diameter cork borer, and was inoculated on the plate culture media containing the aforementioned chemicals. After the inoculation, the bacteria were cultured at the optimum growth temperature of each bacterium for 1 to 7 days (for this optimum growth temperature, LIST OF CULTURES 1996 Microorganisms 10th edition published by Fermentation Research Institute (Foundation) can be referred to.), and the growth of the bacteria was measured by the diameter of a colony. […] R=100(dc−dt)/dc (Equation 3) [wherein each symbol is shown as follows: R=Hypha extension inhibition rate (%), dc=Diameter of colony on no-treated plate, dt=Diameter of colony on chemical-treated plate.] The results obtained above was evaluated in 5 steps in accordance with the following examination scale. <Growth Inhibition> 5: Hypha extension inhibition rate of 90% or more 4: Hypha extension inhibition rate of from 70% to less than 90% 3: […] 2: […] In addition, the abbreviations in Table 10 are as follows: L.n: Leptosphaeria nodorum

cucumber powdery mildew = test: Test of control effect on cucumber powdery mildew; type: in vivo; details: wettable powder 100 mg/l, 100 liters/10 a, cucumber (Sagamihanpakufushinari), examined 9th to 14th day after inoculation
Description: (Test of Control Effect on Cucumber Powdery Mildew) The wettable powders formulated by using each of the compounds I-1 to 27 according to the present invention and the comparative compounds (a) to (d), (m-1) and (m-3) were each diluted and suspended with water to a predetermined concentration (100 mg/l), the suspension was sprinkled over the first to the second leaf period cucumbers (variety: “[…]”) cultivated by using a square plastic pot (size: 6.4 cm×6.4 cm) in a rate of 100 liters/10 a (ares). After the sprinkled leaves were air-dried, the spores were inoculated over the leaves by sprinkling the same with a brush from an infected leaf, a disease was contracted in a glass house (temperature: 20 to 24° C., relative humidity: 20 to 70 RH). On the 9th to 14th day after the inoculation, the infection degree was examined according to the following scale and the control value of each compound was calculated by the following calculation equation 2: (Examination Scale) [table]

Microdochium nivale = test: Antifungal activity test (PDA plate, hypha extension inhibition); type: cell-based; details: 3.2 ppm in PDA culture medium
Description: as §1

Row | Structure (SMILES) | Growth Inhibition P.g (12.5) (Pyrenophora graminea) | Growth Inhibition L.n (0.8) (Leptosphaeria nodorum) | Control Value (cucumber powdery mildew) | Growth Inhibition M.n (3.2) (Microdochium nivale)
1 | CC(Cc1ccc(C(F)(F)F)c(F)c1F)CN(C)Cc1ccc(Cl)nc1 (centres unmarked) [Compound I-10] | 4 (Hypha extension inhibition rate of from 70% to less than 90%) | 4 (Hypha extension inhibition rate of from 70% to less than 90%) | 100 | 4 (Hypha extension inhibition rate of from 70% to less than 90%)
2 | CC(Cc1ccc2c(c1)OC(F)(F)O2)CN(C)Cc1ccc(Cl)nc1 (centres unmarked) [Compound I-24] | 5 (Hypha extension inhibition rate of 90% or more) | 5 (Hypha extension inhibition rate of 90% or more) | 100 | 4 (Hypha extension inhibition rate of from 70% to less than 90%)
